Test results taken from patent publication US9670162B2, “Mitochondrial aldehyde dehyrogenase-2 modulators and methods of use thereof” (The Board of Trustees of the Leland Stanford Junior …, priority 2013, dated 2017).
Changes are numbered by the printed parent chain.

Assays:
[1] = target: T1, human ALDH2*2 recombinant mutant enzyme (E487K) (Homo sapiens, UniProt P05091, E504K); assay: ALDH2 enzymatic assay (NADH at 340 nm), recombinant mutant enzyme; assay type: biochemical; parameters: key: −: no activation or inhibition; +: activation less than control 1; ++: activation similar to control 1, within 10%; +++: activation more than control 1 and less than control (compound 161); ++++: activation similar to compound 161, within 10%; conditions: activation relative to benchmarks control 1 and compound 161
T1 construct: His-tag (pTrcHis vector) (N); made in house; host or cells: E. coli BL21
T1 sequence (P05091 18-517 E504K): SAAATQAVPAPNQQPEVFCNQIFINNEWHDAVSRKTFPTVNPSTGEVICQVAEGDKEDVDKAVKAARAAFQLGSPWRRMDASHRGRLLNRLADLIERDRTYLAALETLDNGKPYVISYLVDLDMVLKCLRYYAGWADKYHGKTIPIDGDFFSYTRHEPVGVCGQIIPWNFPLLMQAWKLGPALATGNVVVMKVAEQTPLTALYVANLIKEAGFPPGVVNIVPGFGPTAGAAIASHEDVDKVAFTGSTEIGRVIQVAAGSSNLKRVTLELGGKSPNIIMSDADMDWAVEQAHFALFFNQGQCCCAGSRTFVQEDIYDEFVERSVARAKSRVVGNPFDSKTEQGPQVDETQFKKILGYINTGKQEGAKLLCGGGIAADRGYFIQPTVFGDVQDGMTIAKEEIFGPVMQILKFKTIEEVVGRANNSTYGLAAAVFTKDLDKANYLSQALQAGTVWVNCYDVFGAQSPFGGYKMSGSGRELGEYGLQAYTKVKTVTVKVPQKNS
Description: (§1) ALDH2 catalyzes the oxidative reaction of substrate acetaldehyde to acetic acid using NAD^+ as a cofactor. Enzymatic activity, or catalytic rate, of aldehyde dehydrogenase (ALDH2) can be measured spectrophotometrically at UV wavelength λ340 nm by the accumulation of reduced product NADH derived from NAD^+. […] This method is well-established in the literature [e.g. D. K. Rex, W. F. Bosron, J. E. Smialek, T. K. Li, Alcohol Clin Exp Res 9, 147 (1985)].
(§2) Full-length wild type human ALDH2 cDNA was purchased from ATCC (No. MGC-1806. GenBank ID: BC002967). The 18-amino acid mitochondria transport signal sequence was removed by PCR and cloned into the NheI/HindIII sites of a His-tag vector, pTrcHis, using standard molecular cloning techniques. The human ALDH2* cDNA construct containing the Asian E487K mutation was obtained by site-directed mutagenesis to create the E487K substitution of the wild type ALDH2. Both human clones were designed to express a recombinant protein with the His-tag at the N-terminus of the protein. For the co-expression experiments of human ALDH2 wild type and ALDH2*2 heterotetramers, a wild type ALDH2 gene and a ALDH2 E487K gene were inserted separately into the two multiple cloning sites of pETDuet-1 vector. (Novagen, Calif., USA). All the vectors were transformed into BL21 E. coli host cells and subjected to 0.5 mM IPTG induction for protein expression at 30° C. Purifications of the recombinant proteins by affinity nickel columns (HisTrap, GE Healthy Science, USA) were carried out using standard protocols according to manufacturer's instructions (Novagen, USA).
(§3) Control 1 and compound 161 are used as benchmarks and the symbols have the following representation: […]

[2] = target: T2, human ALDH2 wild type (Homo sapiens, UniProt P05091); assay: ALDH2 enzymatic assay (NADH at 340 nm), recombinant wild type enzyme; assay type: biochemical; parameters: key: −: no activation or inhibition; +: activation less than control 1; ++: activation similar to control 1, within 10%; +++: activation more than control 1 and less than control (compound 161); ++++: activation similar to compound 161, within 10%; conditions: activation relative to benchmarks control 1 and compound 161
T2 construct: His-tag (pTrcHis vector) (N); made in house; host or cells: E. coli BL21
T2 sequence (P05091 18-517): T1 sequence (P05091 18-517 E504K) with K487E
Description: as §1, §2, §3

| SMILES | ALDH2 (mutant) [1] | ALDH2 (wild-type) [2] |
| --- | --- | --- |
| COc1ccc(CNC(=O)c2c(Cl)cccc2OCC2CC2C)cc1F (stereo not drawn) [Compound 152] | +++ | +++ |
| O=C(NCc1ccc(F)c(F)c1)c1c(Cl)cccc1Br [Compound 153] | + | + |
| COc1ccc(CNS(=O)(=O)c2c(Cl)cccc2Cl)cc1F [Compound 154] | + | + |
| O=C(NCc1ccc(F)c(F)c1)c1c(Cl)cccc1OCC1CC1 [Compound 155] | ++ | + |
| O=S(=O)(NCc1ccc(F)c(F)c1)c1c(Cl)cccc1Cl [Compound 156] | + | − |
| COc1ccc(CNC(=O)c2c(Cl)ccnc2Cl)cc1F [Compound 157] | ++ | ++ |
| COC(=O)c1cccc(Oc2cccc(Cl)c2C(=O)NCc2ccc(OC)c(F)c2)c1 [Compound 158] | + | ++ |
| COc1ccc(CNC(=O)c2c(Cl)cccc2NCC(C)O)cc1F (stereo not drawn) [Compound 159] | ++ | ++ |
| COc1ccc(CNC(=O)c2c(Cl)ccnc2NCC2CC2)cc1F [Compound 160] | ++ | ++ |
| COc1ccc(CNC(=O)c2c(OCC3CC3)ccnc2OCC2CC2)cc1F [Compound 162] | ++ | + |
| COc1ccc(CNS(=O)(=O)c2c(Cl)cccc2NCC2CC2)cc1F [Compound 163] | + | + |
| COc1ccc(CNS(=O)(=O)c2c(Cl)cccc2OCC2CC2)cc1F [Compound 164] | + | + |
| COc1ccc(CNC(=O)c2c(Cl)cccc2OCCN(C)C)cc1F [Compound 165] | ++ | ++ |
| COc1ccc(CNC(=O)c2c(Cl)cccc2OCC(C)N(C)C)cc1F (stereo not drawn) [Compound 166] | ++ | ++ |
| COc1ccc(CNC(=O)c2c(Cl)cccc2OCC(C)(C)N(C)C)cc1F [Compound 167] | + | + |
| COc1ccc(CNC(=O)c2c(Cl)cc[n+]([O-])c2Cl)cc1F [Compound 168] | + | + |
| COc1ccc(CNC(=O)c2c(OCC3CC3)ccnc2Cl)cc1F [Compound 170] | +++ | ++ |
| COc1cc(CNC(=O)c2c(Cl)ccnc2Cl)ccc1F [Compound 171] | − | − |
| COc1cc(CNC(=O)c2c(Cl)ccnc2OCC2CC2)ccc1F [Compound 172] | + | + |
| COc1c(F)cc(CNC(=O)c2c(Cl)ccnc2Cl)cc1F [Compound 173] | ++ | + |
| COc1ccc(CNC(=O)c2c(Cl)ccnc2Cl)c(F)c1F [Compound 174] | ++ | + |
| O=C(NCc1ccc(OC(F)(F)F)c(F)c1)c1c(Cl)ccnc1Cl [Compound 175] | ++ | + |
| COc1cc(F)c(CNC(=O)c2c(Cl)ccnc2Cl)cc1F [Compound 176] | ++ | ++ |
| CC(C)Oc1ccc(CNC(=O)c2c(Cl)ccnc2Cl)cc1F [Compound 177] | − | − |

| SMILES | ALDH2 (mutant) [1] | ALDH2 (wild-type) [2] |
| --- | --- | --- |
| COc1ccc(CNC(=O)c2c(Cl)ccnc2OCC2(C)CC2)cc1F [Compound 178] | ++++ | ++++ |
| COc1ccc(CNC(=O)c2c(Cl)ccnc2OCC2CC2)c(F)c1F [Compound 179] | ++ | + |
| O=C(NCc1ccc(F)c(F)c1)c1c(Cl)ccnc1OCC1CC1 [Compound 180] | + | + |
| COc1ccc(CNC(=O)c2c(Cl)ccnc2NCC(C)C)cc1F [Compound 182] | ++ | + |
| COc1ccc(CNC(=O)c2c(Cl)ccnc2OCC(C)C)cc1F [Compound 183] | ++ | ++ |
| COc1ccc(CNC(=O)c2c(Cl)ccnc2OCCN(C)C)cc1F [Compound 184] | ++ | + |
| COc1ccc(CNC(=O)c2c(Cl)ccnc2NCC(C)O)cc1F (stereo not drawn) [Compound 185] | + | + |
| O=C(NCc1ccc(OC(F)(F)F)c(F)c1)c1c(Cl)ccnc1OCC1CC1 [Compound 187] | ++ | + |
| CC(C)Oc1ccc(CNC(=O)c2c(Cl)ccnc2OCC2CC2)cc1F [Compound 188] | − | − |
| CC(C)Oc1ccc(CNC(=O)c2c(Cl)ccnc2NCC2CC2)cc1F [Compound 189] | + | − |
| COc1cc(F)c(CNC(=O)c2c(Cl)ccnc2OCC2CC2)cc1F [Compound 190] | ++++ | ++++ |
| O=C(NCc1ccc(OC(F)(F)F)c(F)c1)c1c(Cl)ccnc1NCC1CC1 [Compound 191] | + | + |
| COc1ccc(CNC(=O)c2c(Cl)ccnc2OC)cc1F [Compound 192] | +++ | +++ |
| CCOc1nccc(Cl)c1C(=O)NCc1ccc(OC)c(F)c1 [Compound 193] | ++ | ++ |
| CCCOc1nccc(Cl)c1C(=O)NCc1ccc(OC)c(F)c1 [Compound 194] | +++ | + |
| COc1ccc(CNC(=O)c2c(Cl)ccnc2OC(C)C)cc1F [Compound 195] | ++ | ++ |
| COc1ccc(CNC(=O)c2c(Cl)ccnc2OC2CC2)cc1F [Compound 196] | ++ | ++ |
| COc1ccc(CNC(=O)c2c(Cl)ccnc2OC2CCC2)cc1F [Compound 197] | ++++ | ++++ |
| COc1ccc(CNC(=O)c2c(Cl)ccnc2OCC2CCC2)cc1F [Compound 198] | +++ | +++ |
| COc1ccc(CNC(=O)c2c(Cl)ccnc2OC2CCCC2)cc1F [Compound 199] | ++ | ++ |
| COc1ccc(CNC(=O)c2c(Cl)ccnc2OCC2CCCC2)cc1F [Compound 200] | ++ | ++ |
| CCC(CC)Oc1nccc(Cl)c1C(=O)NCc1ccc(OC)c(F)c1 [Compound 201] | ++ | ++ |
| CCC(C)Oc1nccc(Cl)c1C(=O)NCc1ccc(OC)c(F)c1 (stereo not drawn) [Compound 202] | + | ++ |
| COc1ccc(CNC(=O)c2c(Cl)ccnc2OCC(C)(C)C)cc1F [Compound 203] | ++ | ++ |
